Experimental data as given in BindingDB's records for patent US20230271937 (Nuevolution, 2023).

Target: T1, Isoform 2 of Nuclear receptor ROR-gamma (RORgT) (Homo sapiens, UniProt P51449)
T1 sequence (P51449 whole entry): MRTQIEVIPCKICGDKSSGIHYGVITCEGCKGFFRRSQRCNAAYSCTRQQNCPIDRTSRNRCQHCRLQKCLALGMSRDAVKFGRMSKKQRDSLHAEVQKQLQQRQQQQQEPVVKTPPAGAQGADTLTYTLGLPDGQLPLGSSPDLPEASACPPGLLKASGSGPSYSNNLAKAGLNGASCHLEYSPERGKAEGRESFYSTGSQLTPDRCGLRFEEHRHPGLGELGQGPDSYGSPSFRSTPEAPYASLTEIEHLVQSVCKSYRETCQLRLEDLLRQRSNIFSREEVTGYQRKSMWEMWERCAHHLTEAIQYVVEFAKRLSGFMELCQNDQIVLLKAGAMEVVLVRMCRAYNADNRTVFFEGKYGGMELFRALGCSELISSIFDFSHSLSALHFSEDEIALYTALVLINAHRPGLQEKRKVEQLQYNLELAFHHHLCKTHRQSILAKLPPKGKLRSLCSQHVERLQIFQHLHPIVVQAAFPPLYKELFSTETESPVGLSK
Test: RORgamma Reporter Assay (Gal4)
Method: The HEK293 cell line is co-transfected transiently with two plasmids, one with the RORγ ligand-binding domain fused to galactose-responsive transcription factor (Gal4), and the other with the luciferase reporter gene and Gal binding sites (UAS). This construction allows to determine the RORγ activity in a cellular system through the measurement of luminescence. A suspension of RORγ reporter cells was dispensed into plates and cultured 2 h at 37° C. and 5% CO2. Media formulation consisted in DMEM/F-12 medium (Gibco) supplemented with 10% heat inactivated FBS (Sigma-Aldrich), non-essential aminoacids (Sigma-Aldrich), 2 mM Glutamax (Gibco) and 100 U/mL penicillin (Sigma-Aldrich). Dose-response curves with compounds were prepared in 100% DMSO and further diluted 100-fold in culture medium. […] The following formula was used: activity=100*[1−[x test compound/average vehicle] where the theoretical minimum reduction (0% reduction).

SMILES: CN(Cc1cccc(C#N)c1)c1ncnc(NC[C@H]2CCN(CC(N)=O)C[C@@H]2O)c1F [US20230271937, Example F2-08]
- EC50: 700 nM
